Results taken from US6703362B1, “Random peptides that bind to gastro-intestinal tract (GIT) transport receptors and related methods” (Cytogen Corporation, priority 1997, dated 2004).

Experiments:
BSA = BSA (Bos taurus, UniProt P02769); experiment: Phage ELISA on BSA (background control protein); type: binding; conditions: Table 5
Method: (§1) 96 well plates were coated overnight with GIT receptor, BSA and, optionally, IDE (insulin degrading enzyme, an irrelevant His-fusion protein)or hTF. The plates were 5 blocked for one hour with 0.5% BSA-PBS. After clarification, the amplified phage were diluted 1:100 in […] plus 0.05% Tween 20 in PBS and added to the plates. Following incubation of the plates on a rotator for 1 to 2 hours, the plates were washed 5 times with 1% BSA plus 0.05% Tween 20 in PBS. Dilute anti-M13-HRP conjugate (anti-M13 antibody linked to horse radish peroxidase (HRP)) was added to all the wells and the plate was incubated for one hour on a rotator. After the plates were washed 5 times, as described above, TMB substrate was added to the wells. The plates were read at 650 nm absorbance.

HPT1 = molecular target: T1, HPT1 (Homo sapiens, UniProt Q12864); experiment: Phage receptor ELISA on HPT1; type: binding; conditions: Table 5
T1 construct: 29-273; made in house
T1 sequence (Q12864 29-273): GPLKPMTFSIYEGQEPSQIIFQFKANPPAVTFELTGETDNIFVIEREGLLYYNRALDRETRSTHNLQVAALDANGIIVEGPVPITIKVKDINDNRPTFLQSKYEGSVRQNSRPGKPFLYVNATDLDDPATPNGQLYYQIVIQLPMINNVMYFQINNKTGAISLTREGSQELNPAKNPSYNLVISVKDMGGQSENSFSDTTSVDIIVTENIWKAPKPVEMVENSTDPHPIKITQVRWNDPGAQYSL
Method: as §1

[1] = Isoelectric points of synthetic peptides; type: physicochemical

Chain of BSA (P02769 25-607): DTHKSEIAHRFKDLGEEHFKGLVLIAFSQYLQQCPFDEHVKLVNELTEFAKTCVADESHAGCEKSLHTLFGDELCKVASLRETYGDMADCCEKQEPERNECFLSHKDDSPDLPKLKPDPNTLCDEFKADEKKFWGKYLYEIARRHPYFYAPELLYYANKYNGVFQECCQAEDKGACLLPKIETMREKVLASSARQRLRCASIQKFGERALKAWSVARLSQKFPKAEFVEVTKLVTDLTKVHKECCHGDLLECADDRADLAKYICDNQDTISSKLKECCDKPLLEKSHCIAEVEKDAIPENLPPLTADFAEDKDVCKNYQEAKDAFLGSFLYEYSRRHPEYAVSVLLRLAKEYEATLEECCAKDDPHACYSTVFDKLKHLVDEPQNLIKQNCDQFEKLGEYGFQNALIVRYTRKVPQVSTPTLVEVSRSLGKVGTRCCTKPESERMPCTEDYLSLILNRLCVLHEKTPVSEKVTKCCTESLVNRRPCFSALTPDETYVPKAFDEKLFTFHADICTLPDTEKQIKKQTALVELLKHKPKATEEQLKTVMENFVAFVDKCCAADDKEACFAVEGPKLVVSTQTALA

For “SDHALGTNLRSDNAKEPGDYNCCGNGNSTGRKVFNRRRPSAIPT [HAX42]”, the “OD, binding to BSA” value (BSA) was 0.071, the “OD, binding to HPT1” value (HPT1; phage panned on HPT-1) was 0.32 and the HPT/BSA (HPT1; ratio of HPT-1 to BSA binding) was 5. For the same sequence, the pI [1] was 9.62.
